# How the values were obtained:
# [1] = molecular target: C5a anaphylatoxin chemotactic receptor 1 (Homo sapiens) (UniProt P21730); assay: Anaphylatoxin C5a Eurofins-Panlabs radioligand binding assay; details: Compound concentration 10.0 uM
# [2] = molecular target: D(3) dopamine receptor (Homo sapiens, UniProt P35462); details: Compound concentration 10.0 uM
# [3] = molecular target: Sodium-dependent noradrenaline transporter (Homo sapiens) (UniProt P23975); details: Compound concentration 10.0 uM
# [4] = species on record: Rattus norvegicus; assay: Adrenergic α1, Non-selective Eurofins-Panlabs radioligand binding assay; assay type: protein assay; details: Compound concentration 10.0 uM
# [5] = GPCRScan assay: inhibition of GABA/PBR; set-up: species or system Rattus norvegicus; radioligand conc. used [nm] 0.3 – 2.0, parental cells brain tissue
# [6] = molecular target: Muscarinic acetylcholine receptor M3 (Homo sapiens) (UniProt P20309); assay: Muscarinic M3 Eurofins-Panlabs radioligand binding assay; details: Compound concentration 10.0 uM
# [7] = molecular target: Histamine H2 receptor (Homo sapiens) (UniProt P25021); details: Compound concentration 10.0 uM
# [8] = molecular target: Adenosine receptor A1 (Homo sapiens) (UniProt P30542); details: Compound concentration 10.0 uM
# Sequence of Adenosine receptor A1 (Homo sapiens) (P30542 whole entry): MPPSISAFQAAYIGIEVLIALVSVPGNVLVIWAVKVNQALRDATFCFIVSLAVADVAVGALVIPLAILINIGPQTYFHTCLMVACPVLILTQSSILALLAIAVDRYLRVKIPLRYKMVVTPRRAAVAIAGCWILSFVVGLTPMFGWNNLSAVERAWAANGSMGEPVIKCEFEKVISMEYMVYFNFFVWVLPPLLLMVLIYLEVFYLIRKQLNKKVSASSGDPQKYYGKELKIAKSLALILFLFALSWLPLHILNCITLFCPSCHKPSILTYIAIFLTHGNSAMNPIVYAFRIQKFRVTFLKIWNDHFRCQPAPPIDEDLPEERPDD
# [9] = molecular target: Delta-type opioid receptor (Homo sapiens) (UniProt P41143); details: Compound concentration 10.0 uM
# [10] = molecular target: Muscarinic acetylcholine receptor M4 (Homo sapiens) (UniProt P08173); details: Compound concentration 10.0 uM
# [11] = molecular target: Gamma-aminobutyric acid type B receptor subunit 1 (Homo sapiens) (UniProt Q9UBS5); assay: GABAB1A Eurofins-Panlabs radioligand binding assay; details: Compound concentration 10.0 uM
# Sequence of Gamma-aminobutyric acid type B receptor subunit 1 (Homo sapiens) (Q9UBS5 whole entry): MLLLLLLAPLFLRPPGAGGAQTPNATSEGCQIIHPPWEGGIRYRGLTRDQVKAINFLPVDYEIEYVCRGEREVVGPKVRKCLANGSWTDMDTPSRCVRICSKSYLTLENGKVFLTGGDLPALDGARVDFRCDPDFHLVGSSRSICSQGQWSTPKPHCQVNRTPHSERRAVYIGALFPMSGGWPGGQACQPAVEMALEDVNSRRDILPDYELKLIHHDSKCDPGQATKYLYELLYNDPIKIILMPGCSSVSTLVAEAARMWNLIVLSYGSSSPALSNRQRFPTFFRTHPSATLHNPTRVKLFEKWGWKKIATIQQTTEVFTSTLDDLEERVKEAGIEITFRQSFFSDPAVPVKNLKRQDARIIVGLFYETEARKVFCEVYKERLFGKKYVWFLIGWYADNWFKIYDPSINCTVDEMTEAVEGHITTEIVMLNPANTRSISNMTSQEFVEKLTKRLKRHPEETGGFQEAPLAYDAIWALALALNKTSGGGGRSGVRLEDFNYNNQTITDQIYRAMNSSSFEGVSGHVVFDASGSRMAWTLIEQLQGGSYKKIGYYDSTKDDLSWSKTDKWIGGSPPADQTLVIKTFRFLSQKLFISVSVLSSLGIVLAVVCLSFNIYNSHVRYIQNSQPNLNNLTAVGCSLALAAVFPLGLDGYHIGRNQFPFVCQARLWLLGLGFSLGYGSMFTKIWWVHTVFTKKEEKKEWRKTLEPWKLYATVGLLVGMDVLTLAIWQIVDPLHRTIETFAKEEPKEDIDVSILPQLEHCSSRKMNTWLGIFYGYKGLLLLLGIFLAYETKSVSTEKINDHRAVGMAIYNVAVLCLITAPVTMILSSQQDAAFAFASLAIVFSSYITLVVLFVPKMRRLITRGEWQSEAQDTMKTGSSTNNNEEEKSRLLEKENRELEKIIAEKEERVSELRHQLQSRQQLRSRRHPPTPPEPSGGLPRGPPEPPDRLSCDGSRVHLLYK
# [12] = molecular target: Beta-1 adrenergic receptor (Homo sapiens) (UniProt P08588); details: Compound concentration 10.0 uM
# [13] = molecular target: Glucocorticoid receptor (Homo sapiens) (UniProt P04150); assay: Glucocorticoid Eurofins-Panlabs radioligand binding assay; details: Compound concentration 10.0 uM
# [14] = molecular target: Insulin receptor (Homo sapiens) (UniProt P06213); details: Rattus norvegicus; Compound concentration 10.0 uM
# [15] = molecular target: 5-hydroxytryptamine receptor 4 (Homo sapiens) (UniProt Q13639); assay: Inhibition of Serotonin (5-Hydroxytryptamine) 5-HT4 at 10 µM in the Eurofins-Panlabs radioligand binding assay (Eurofins_assay_272000); details: Cavia porcellus; Compound concentration 10.0 uM
# Sequence of 5-hydroxytryptamine receptor 4 (Homo sapiens) (Q13639 whole entry): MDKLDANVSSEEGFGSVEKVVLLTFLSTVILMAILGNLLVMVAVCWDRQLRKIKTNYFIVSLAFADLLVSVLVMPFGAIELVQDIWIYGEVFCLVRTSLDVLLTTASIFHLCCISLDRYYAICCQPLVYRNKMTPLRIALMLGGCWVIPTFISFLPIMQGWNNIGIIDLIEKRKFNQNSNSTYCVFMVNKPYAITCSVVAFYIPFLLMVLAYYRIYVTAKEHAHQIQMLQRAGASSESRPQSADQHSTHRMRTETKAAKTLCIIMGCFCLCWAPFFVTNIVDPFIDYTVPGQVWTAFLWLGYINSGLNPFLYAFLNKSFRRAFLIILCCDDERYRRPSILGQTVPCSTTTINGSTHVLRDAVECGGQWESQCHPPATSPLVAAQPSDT
# [16] = molecular target: T1, D(4) dopamine receptor (Homo sapiens) (UniProt P21917); details: Compound concentration 10.0 uM
# T1 sequence (whole entry): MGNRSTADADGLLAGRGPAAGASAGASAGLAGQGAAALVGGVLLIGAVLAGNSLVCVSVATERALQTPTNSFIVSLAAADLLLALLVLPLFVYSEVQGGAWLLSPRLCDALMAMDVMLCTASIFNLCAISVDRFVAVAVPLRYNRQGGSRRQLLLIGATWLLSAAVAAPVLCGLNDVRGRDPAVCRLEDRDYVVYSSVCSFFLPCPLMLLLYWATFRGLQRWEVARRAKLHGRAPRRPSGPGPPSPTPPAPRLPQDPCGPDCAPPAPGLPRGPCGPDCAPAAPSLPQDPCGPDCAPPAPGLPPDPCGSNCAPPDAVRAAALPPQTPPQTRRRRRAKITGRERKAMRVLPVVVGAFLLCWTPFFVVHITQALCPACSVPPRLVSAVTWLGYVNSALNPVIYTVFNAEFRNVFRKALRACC
# [17] = molecular target: T1, D(4) dopamine receptor (Homo sapiens); assay: Inhibition of Dopamine D4.2 at 10 µM in the Eurofins-Panlabs radioligand binding assay (Eurofins_assay_219900); set-up: ligand concentration 0.5 nM; details: Compound concentration 10.0 uM
# [18] = species on record: Rattus norvegicus; assay: Inhibition of Glutamate, NMDA, Phencyclidine at 10 µM in the Eurofins-Panlabs radioligand binding assay (Eurofins_assay_233000); assay type: protein-complex assay; details: Compound concentration 10.0 uM
# [19] = molecular target: 5-hydroxytryptamine receptor 1D (Homo sapiens) (UniProt P28221); details: Compound concentration 10.0 uM
# [20] = molecular target: Growth hormone secretagogue receptor type 1 (Homo sapiens) (UniProt Q92847); details: Compound concentration 10.0 uM
# Sequence of Growth hormone secretagogue receptor type 1 (Homo sapiens) (Q92847 whole entry): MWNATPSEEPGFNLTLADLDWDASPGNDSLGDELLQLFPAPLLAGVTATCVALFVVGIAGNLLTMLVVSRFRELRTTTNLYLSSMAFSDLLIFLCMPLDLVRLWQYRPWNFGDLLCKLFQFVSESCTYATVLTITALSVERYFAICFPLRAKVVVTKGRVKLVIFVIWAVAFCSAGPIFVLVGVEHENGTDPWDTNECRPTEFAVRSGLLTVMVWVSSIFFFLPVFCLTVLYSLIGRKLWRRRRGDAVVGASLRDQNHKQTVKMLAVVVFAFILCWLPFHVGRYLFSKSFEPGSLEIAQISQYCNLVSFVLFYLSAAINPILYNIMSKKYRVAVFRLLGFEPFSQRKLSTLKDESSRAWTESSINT
# [21] = molecular target: Histamine H1 receptor (Homo sapiens) (UniProt P35367); details: Compound concentration 10.0 uM
# [22] = molecular target: Voltage-dependent N-type calcium channel subunit alpha-1B (Homo sapiens) (UniProt Q00975); assay: Inhibition of Calcium Channel N-Type at 10 µM in the Eurofins-Panlabs radioligand binding assay (Eurofins_assay_216000); details: Rattus norvegicus; Compound concentration 10.0 uM
# Sequence of Voltage-dependent N-type calcium channel subunit alpha-1B (Homo sapiens) (Q00975 whole entry, looked up): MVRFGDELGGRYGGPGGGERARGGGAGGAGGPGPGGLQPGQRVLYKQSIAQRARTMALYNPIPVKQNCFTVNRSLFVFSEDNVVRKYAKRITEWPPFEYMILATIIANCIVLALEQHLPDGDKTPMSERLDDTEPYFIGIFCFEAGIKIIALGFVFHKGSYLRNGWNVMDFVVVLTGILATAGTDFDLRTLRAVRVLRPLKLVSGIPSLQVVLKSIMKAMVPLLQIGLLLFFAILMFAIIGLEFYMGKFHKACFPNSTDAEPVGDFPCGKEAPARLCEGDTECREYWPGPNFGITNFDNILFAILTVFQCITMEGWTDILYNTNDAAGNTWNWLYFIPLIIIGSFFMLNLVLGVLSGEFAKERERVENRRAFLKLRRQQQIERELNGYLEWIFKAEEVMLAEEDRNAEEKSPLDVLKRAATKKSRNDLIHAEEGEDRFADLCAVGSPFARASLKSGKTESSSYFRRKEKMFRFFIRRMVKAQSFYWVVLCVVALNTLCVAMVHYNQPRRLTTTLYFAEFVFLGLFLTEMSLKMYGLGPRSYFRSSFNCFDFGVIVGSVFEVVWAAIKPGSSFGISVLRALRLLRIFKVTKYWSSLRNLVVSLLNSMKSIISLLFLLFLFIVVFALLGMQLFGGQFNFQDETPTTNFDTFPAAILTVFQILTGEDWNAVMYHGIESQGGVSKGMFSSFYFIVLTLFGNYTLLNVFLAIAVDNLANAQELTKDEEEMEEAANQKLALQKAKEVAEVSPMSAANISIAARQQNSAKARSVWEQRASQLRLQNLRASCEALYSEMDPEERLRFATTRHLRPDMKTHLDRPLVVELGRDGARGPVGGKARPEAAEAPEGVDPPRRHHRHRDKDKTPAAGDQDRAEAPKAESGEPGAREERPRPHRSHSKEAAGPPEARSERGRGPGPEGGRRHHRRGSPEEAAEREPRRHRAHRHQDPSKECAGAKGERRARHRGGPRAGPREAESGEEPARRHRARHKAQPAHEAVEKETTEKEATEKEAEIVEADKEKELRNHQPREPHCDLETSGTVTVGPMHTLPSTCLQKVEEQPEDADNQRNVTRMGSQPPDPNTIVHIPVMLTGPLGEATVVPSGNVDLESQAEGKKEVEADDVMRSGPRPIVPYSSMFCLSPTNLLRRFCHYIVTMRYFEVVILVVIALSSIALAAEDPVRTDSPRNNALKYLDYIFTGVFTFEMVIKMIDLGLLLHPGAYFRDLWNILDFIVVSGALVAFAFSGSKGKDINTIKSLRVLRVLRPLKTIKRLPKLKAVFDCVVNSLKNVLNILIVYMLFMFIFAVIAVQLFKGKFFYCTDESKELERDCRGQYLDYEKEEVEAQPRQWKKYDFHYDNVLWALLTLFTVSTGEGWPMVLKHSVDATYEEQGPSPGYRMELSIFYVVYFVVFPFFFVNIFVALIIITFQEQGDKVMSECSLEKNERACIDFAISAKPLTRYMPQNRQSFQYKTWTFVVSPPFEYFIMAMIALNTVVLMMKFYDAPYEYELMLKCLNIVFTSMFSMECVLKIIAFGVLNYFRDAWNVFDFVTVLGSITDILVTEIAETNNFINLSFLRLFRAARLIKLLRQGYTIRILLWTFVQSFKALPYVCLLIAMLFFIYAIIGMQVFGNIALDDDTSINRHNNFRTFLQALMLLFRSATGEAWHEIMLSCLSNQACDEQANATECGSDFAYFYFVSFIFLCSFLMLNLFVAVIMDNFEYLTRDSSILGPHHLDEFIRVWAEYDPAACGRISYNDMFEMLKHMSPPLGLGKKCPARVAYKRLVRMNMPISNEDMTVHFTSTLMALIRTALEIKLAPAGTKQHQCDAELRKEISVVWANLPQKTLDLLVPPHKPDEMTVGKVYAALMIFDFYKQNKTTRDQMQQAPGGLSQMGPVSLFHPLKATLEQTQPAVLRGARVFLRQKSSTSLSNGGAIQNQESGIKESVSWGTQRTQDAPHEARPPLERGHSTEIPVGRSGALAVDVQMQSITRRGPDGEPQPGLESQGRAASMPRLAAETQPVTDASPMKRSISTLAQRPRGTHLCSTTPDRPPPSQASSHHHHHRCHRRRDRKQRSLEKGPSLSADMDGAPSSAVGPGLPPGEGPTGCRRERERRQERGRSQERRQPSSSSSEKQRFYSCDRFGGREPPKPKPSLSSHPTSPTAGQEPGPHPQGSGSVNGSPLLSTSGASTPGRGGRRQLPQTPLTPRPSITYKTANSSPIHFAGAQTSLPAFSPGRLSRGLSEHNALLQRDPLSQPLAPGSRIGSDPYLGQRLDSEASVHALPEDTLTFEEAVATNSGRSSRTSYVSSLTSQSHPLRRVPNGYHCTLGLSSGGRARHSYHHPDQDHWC
# [23] = molecular target: Vasopressin V1b receptor (Homo sapiens) (UniProt P47901); assay: Inhibition of Vasopressin V1B at 10 µM in the Eurofins-Panlabs radioligand binding assay (Eurofins_assay_287560); set-up: ligand concentration 1 nM; details: Compound concentration 10.0 uM
# [24] = molecular target: Adenosine receptor A3 (Homo sapiens) (UniProt P0DMS8); details: Compound concentration 10.0 uM
# [25] = molecular target: Gamma-aminobutyric acid type B receptor subunit 1 (Homo sapiens) (UniProt Q9UBS5); assay: GABAB1B Eurofins-Panlabs radioligand binding assay; details: Compound concentration 10.0 uM
# [26] = species on record: Mus musculus; assay: Inhibition of Phorbol Ester at 10 µM in the Eurofins-Panlabs radioligand binding assay (Eurofins_assay_264500); set-up: ligand concentration 3 nM; details: Compound concentration 10.0 uM
# [27] = molecular target: Coagulation factor VII (Homo sapiens) (UniProt P08709); assay: Peptidase, Factor VIIa Eurofins-Panlabs enzyme assay; set-up: substrate with concentration; details: Compound concentration 10.0 uM
# [28] = species on record: Bos taurus; assay: Phosphodiesterase PDE6 Eurofins-Panlabs enzyme assay; set-up: substrate with concentration [3H] cGMP + cGMP, incubation time 20 min, incubation temperature 25 °C; details: Compound concentration 10.0 uM
# [29] = molecular target: Carbonic anhydrase (Homo sapiens) (UniProt P00918+P43166+P00915+P07451+P23280+O43570+Q9ULX7+Q16790+P22748+Q8N1Q1+Q9Y2D0+P35218); assay: Carbonic Anhydrase Eurofins-Panlabs enzyme assay; assay type: protein assay; details: Compound concentration 10.0 uM
# [30] = molecular target: Phosphodiesterase 3 (Homo sapiens) (UniProt Q14432+Q13370); assay: Inhibition of Phosphodiesterase PDE3 at compound concentration of 10.0 uM in the Eurofins-Panlabs enzyme assay (Eurofins_assay_152000); assay type: protein assay; set-up: substrate with concentration 1.01 uM [3H] cAMP + cAMP, incubation time 20 min, incubation temperature 25 C; details: Compound concentration 10.0 uM
# [31] = molecular target: 5-hydroxytryptamine receptor 5A (Homo sapiens) (UniProt P47898); details: Compound concentration 10.0 uM
# [32] = molecular target: T2, Muscarinic acetylcholine receptor M2 (Homo sapiens) (UniProt P08172); details: Compound concentration 10.0 uM
# T2 sequence (whole entry): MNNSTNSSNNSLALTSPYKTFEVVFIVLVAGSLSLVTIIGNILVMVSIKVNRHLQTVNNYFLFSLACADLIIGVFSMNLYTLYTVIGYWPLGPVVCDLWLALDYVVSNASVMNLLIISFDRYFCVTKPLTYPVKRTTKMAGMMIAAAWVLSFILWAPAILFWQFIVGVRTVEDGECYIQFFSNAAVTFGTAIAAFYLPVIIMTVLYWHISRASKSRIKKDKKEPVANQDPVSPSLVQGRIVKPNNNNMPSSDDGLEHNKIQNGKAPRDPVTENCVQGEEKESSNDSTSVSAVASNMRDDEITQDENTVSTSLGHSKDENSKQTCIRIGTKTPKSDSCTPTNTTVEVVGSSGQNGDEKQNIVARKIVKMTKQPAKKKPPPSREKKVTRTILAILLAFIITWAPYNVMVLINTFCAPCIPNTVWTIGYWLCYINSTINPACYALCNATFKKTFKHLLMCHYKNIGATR
# Sequence of D(3) dopamine receptor (P35462 whole entry): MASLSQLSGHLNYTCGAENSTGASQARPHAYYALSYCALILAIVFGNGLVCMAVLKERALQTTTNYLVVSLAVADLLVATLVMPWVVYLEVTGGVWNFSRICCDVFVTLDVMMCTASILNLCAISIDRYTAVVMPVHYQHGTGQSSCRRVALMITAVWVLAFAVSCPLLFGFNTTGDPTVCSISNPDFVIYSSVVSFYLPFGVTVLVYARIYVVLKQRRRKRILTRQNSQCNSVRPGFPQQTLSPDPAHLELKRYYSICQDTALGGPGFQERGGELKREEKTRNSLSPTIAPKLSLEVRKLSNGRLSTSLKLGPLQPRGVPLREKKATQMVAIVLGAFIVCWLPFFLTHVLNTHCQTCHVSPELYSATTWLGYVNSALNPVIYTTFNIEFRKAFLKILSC
SMILES,inhibition [2],inhibition [3],inhibition [4],inhibition [6],inhibition [7],inhibition [8],inhibition [11],inhibition [12],inhibition [13],inhibition [14],inhibition [15],inhibition [16],inhibition [17],inhibition [18],inhibition [19],inhibition [20],inhibition [21],inhibition [22],inhibition [23],inhibition [24],other results
Cc1cc(OC2CCS(=O)(=O)CC2)cc(C)c1-c1cccc(COc2ccc(C(=O)O)c(F)c2)c1,4%,5%,-1%,1%,2%,-4%,20%,-4%,14%,0%,-8%,7.27%,6%,5%,29.5%,-1%,2%,-9%,-4%,0%,inhibition [1]: -1%; Ki [5]: 2750 nM; pKi [5]: 5.56; inhibition [9]: -7.07%; inhibition [10]: -4.72%; inhibition [25]: 10%; inhibition [26]: -3%
Cc1cc(OC2CCS(=O)(=O)CC2)cc(C)c1-c1cccc(COc2ccc(CCC(=O)O)c(F)c2)c1,-7%,22%,-2%,4%,26%,-1%,7%,5%,0%,7%,8%,85.4%,9%,-4%,35.8%,2%,-7%,-4%,-4%,5%,inhibition [27]: -10%; inhibition [28]: 20%; inhibition [29]: 27%; inhibition [30]: 3%; inhibition [31]: 13.3%; inhibition [32]: 2.31%; inhibition [25]: 1%; inhibition [26]: -9%

# Reference: ChEMBL document CHEMBL5058642, “Data for DCP probe TP-051” (2022)
